In PMC2923275 (Biochemical pharmacology, 2010):

Columns and labels:
[1] = tested on: wild type (RH) strain of T. gondii; test: Anti-toxoplasmic activity in tissue culture; format: cell-based, Toxoplasma gondii; conditions: wild type (RH) in human fibroblasts
[2] = tested on: adenosine kinase deficient (TgAK^-3) strain of T. gondii; test: Anti-toxoplasmic activity in tissue culture; format: cell-based, Toxoplasma gondii; conditions: TgAK^-3 in human fibroblasts
[3] = tested on: uninfected human foreskin fibroblasts; test: Host toxicity, MTT assay on uninfected host cells; conditions: infection: None

SMILES	percent survival of parasite ([1]; 5 μM compound) [%]	percent survival of parasite ([1]; 10 μM compound) [%]	percent survival of parasite ([1]; 25 μM compound) [%]	percent survival of parasite ([1]; 50 μM compound) [%]	percent survival of parasite ([2]; 5 μM compound) [%]	percent survival of parasite ([2]; 10 μM compound) [%]	percent survival of parasite ([2]; 25 μM compound) [%]	percent survival of parasite ([2]; 50 μM compound) [%]	host-toxicity (survival of uninfected host cells) ([3]; 5 μM compound) [%]	host-toxicity (survival of uninfected host cells) ([3]; 10 μM compound) [%]	host-toxicity (survival of uninfected host cells) ([3]; 25 μM compound) [%]	host-toxicity (survival of uninfected host cells) ([3]; 50 μM compound) [%]
OCC1CC(n2cnc3c(SCc4ccccc4F)ncnc32)C(O)C1O (stereo not shown) [Compound 2, Carbocyclic 6-(o-fluorobenzylthio)inosine]	98.6	93.7	39.2	12.7	100	100	100	100	100	100	100	85.8
OCC1CC(n2cnc3c(SCc4ccccc4Cl)ncnc32)C(O)C1O (stereo not shown) [Compound 3, Carbocyclic 6-(o-chlorobenzylthio)inosine]	79.5	48.8	9.8	2.2	100	100	100	100	100	100	100	100
Cc1ccccc1CSc1ncnc2c1ncn2C1CC(CO)C(O)C1O (stereo not shown) [Compound 4, Carbocyclic 6-(o-methylbenzylthio)inosine]	82.7	45.4	7.6	0.0	100	100	100	100	100	100	100	99.2
Cc1cccc(CSc2ncnc3c2ncn3C2CC(CO)C(O)C2O)c1 (stereo not shown) [Compound 5, Carbocyclic 6-(m-methylbenzylthio)inosine]	88.3	64.7	13.7	1.2	100	100	100	100	100	100	100	96.1
OCC1CC(n2cnc3c(SCc4cccc(C(F)(F)F)c4)ncnc32)C(O)C1O (stereo not shown) [Compound 6, Carbocyclic 6-(m-trifluoromethylbenzylthio)inosine]	79.0	47.1	6.3	1.0	100	100	100	100	100	100	100	90.6
O=[N+]([O-])c1cccc(CSc2ncnc3c2ncn3C2CC(CO)C(O)C2O)c1 (stereo not shown) [Compound 7, Carbocyclic 6-(m-nitrobenzylthio)inosine]	84.4	50.9	4.2	0.0	100	100	100	100	100	100	100	100
OCC1CC(n2cnc3c(SCc4ccc(Cl)cc4)ncnc32)C(O)C1O (stereo not shown) [Compound 9, Carbocyclic 6-(p-chlorobenzylthio)inosine]	72.9	11.9	0.0	0.0	100	100	100	100	100	100	100	100
OCC1CC(n2cnc3c(SCc4ccc(Br)cc4)ncnc32)C(O)C1O (stereo not shown) [Compound 10, Carbocyclic 6-(p-bromobenzylthio)inosine]	77.1	47.3	1.2	1.0	100	100	100	100	100	100	100	100
O=[N+]([O-])c1ccc(CSc2ncnc3c2ncn3C2CC(CO)C(O)C2O)cc1 (stereo not shown) [Compound 12, Carbocyclic 6-(p-nitrobenzylthio)inosine]	100	97.6	44.2	16.8	100	100	100	100	100	100	100	100
N#Cc1ccc(CSc2ncnc3c2ncn3C2CC(CO)C(O)C2O)cc1 (stereo not shown) [Compound 13, Carbocyclic 6-(p-cyanobenzylthio)inosine]	100	100	48.8	17.8	100	100	100	100	100	100	100	100
Nc1ccc(S(=O)(=O)Nc2ncccn2)cc1 [Compound 23, Sulfadiazine, reference compound]	92.9	58.0	53.4	46.3					98.2	99.8	99.8	102
CCc1nc(N)nc(N)c1-c1ccc(Cl)cc1 [Compound 24, Pyrimethamine, reference compound]	98.9	55.3	25.1	23.2					101	100	108	108
